In publication PMC10177510, “A Multicenter, Open-Label, Phase I/II Study of FN-1501 in Patients with Advanced Solid Tumors” (Cancers, 2023):
Converted amounts (≈) assume the structure as drawn. Where two headings read alike, the source gives them in different places.

Assays:
[1] = preclinical, no reference given, cited from earlier work
MOLM-13 = test system: MOLM-13; set-up: method as in data on file, Fosun Pharma; conditions: ref data on file, Fosun Pharma; cited from earlier work
MOLM-13 xenograft = conditions: preclinical, no reference given; cited from earlier work
MV-4-11 = conditions: ref data on file, Fosun Pharma; cited from earlier work
Unbound fraction = assay type: in vitro ADME
MV-4-11 xenograft = conditions: preclinical, no reference given; cited from earlier work

CN1CCN(Cc2ccc(NC(=O)c3[nH]ncc3Nc3ncnc4[nH]ccc34)cc2)CC1 [FN-1501]
Css,u in mice ([1]; 5 mg): roughly 5 ng/mL | Css,u in mice ([1]; 20 mg): ~0.05 µg/mL | IC50 (MOLM-13): 5.2 ng/mL (≈ 12.1 nM) | Dose at which tumor growth reached stasis (MOLM-13 xenograft): 20 mg/kg | IC50 (MV-4-11): 2.6 ng/mL (≈ 6.03 nM) | Unbound fraction (Unbound fraction): 30% | Dose at which tumor growth reached stasis (MV-4-11 xenograft): 5 mg/kg
